Measured values published in the OligoGym collection.
Oligonucleotides are written 5' to 3', each unit as a sugar letter and its base; * is a phosphorothioate linkage, no mark a phosphodiester; rarer units and linkages stand in square brackets, end groups in braces. Plain capitals give the bases only. d = 2'-deoxy (DNA); r = 2'-OH (RNA)

molecular target: UBE2V1; experiment: reporter assay of Huesken 2005; details: siRNA
Note: test concentration or dose not given here.

Substance | normalised inhibition (eCFP-eYFP dual reporter) [%]
sense rUrArCrArArGrArUrGrGrArCrArGrGrGrArUrGdTdT / antisense rCrArUrCrCrCrUrGrUrCrCrArUrCrUrUrGrUrAdAdG | 52.7
sense rUrArGrCrArArArArUrGrGrCrArGrArArUrUrCdTdT / antisense rGrArArUrUrCrUrGrCrCrArUrUrUrUrGrCrUrAdGdC | 63
sense rUrArGrCrUrGrGrGrGrUrCrUrArGrArArGrArUdTdT / antisense rArUrCrUrUrCrUrArGrArCrCrCrCrArGrCrUrAdAdC | 82.8
sense rUrArUrArGrCrArUrCrArArArGrUrUrGrUrCrCdTdT / antisense rGrGrArCrArArCrUrUrUrGrArUrGrCrUrArUrAdTdG | 47
sense rUrCrArArArGrUrUrGrUrCrCrUrGrCrArArGrAdTdT / antisense rUrCrUrUrGrCrArGrGrArCrArArCrUrUrUrGrAdTdG | 89.8
sense rUrCrArUrArUrArGrCrArUrCrArArArGrUrUrGdTdT / antisense rCrArArCrUrUrUrGrArUrGrCrUrArUrArUrGrAdAdT | 49
sense rUrCrCrCrUrCrArGrCrCrGrCrCrCrGrArArGrGdTdT / antisense rCrCrUrUrCrGrGrGrCrGrGrCrUrGrArGrGrGrAdGdT | 46.6
sense rUrCrGrCrArArUrUrUrCrCrGrArCrUrGrUrUrGdTdT / antisense rCrArArCrArGrUrCrGrGrArArArUrUrGrCrGrAdGdG | 85.6
sense rUrCrGrGrCrGrCrCrUrArArUrGrArUrGrUrCrUdTdT / antisense rArGrArCrArUrCrArUrUrArGrGrCrGrCrCrGrAdAdG | 78.8
sense rUrCrUrArGrArArGrArUrGrArCrGrArArGrArCdTdT / antisense rGrUrCrUrUrCrGrUrCrArUrCrUrUrCrUrArGrAdCdC | 58
sense rUrGrArArCrCrUrArGrArArArArUrUrUrCrArCdTdT / antisense rGrUrGrArArArUrUrUrUrCrUrArGrGrUrUrCrAdAdG | 43
sense rUrGrArGrUrGrArUrGrArArGrGrArArGrArCrUdTdT / antisense rArGrUrCrUrUrCrCrUrUrCrArUrCrArCrUrCrAdGdT | 62.3
sense rUrGrCrUrArGrCrArArArArUrGrGrCrArGrArAdTdT / antisense rUrUrCrUrGrCrCrArUrUrUrUrGrCrUrArGrCrAdCdT | 71.4
sense rUrGrGrArArGrArArCrUrCrGrArArGrArArGrGdTdT / antisense rCrCrUrUrCrUrUrCrGrArGrUrUrCrUrUrCrCrAdAdC | 59.9
sense rUrGrGrCrArGrArArUrUrCrArUrArUrArGrCrAdTdT / antisense rUrGrCrUrArUrArUrGrArArUrUrCrUrGrCrCrAdTdT | 89.7
sense rUrGrGrGrCrCrUrCrCrArArGrArArCrArArUrUdTdT / antisense rArArUrUrGrUrUrCrUrUrGrGrArGrGrCrCrCrAdAdT | 57.1
sense rUrGrGrGrGrUrCrUrArGrArArGrArUrGrArCrGdTdT / antisense rCrGrUrCrArUrCrUrUrCrUrArGrArCrCrCrCrAdGdC | 38.8
sense rUrUrArArArArUrArGrArArUrGrUrGrGrArCrCdTdT / antisense rGrGrUrCrCrArCrArUrUrCrUrArUrUrUrUrArAdGdG | 38.8
sense rUrUrCrArCrUrGrCrArArArGrGrArGrUrArArAdTdT / antisense rUrUrUrArCrUrCrCrUrUrUrGrCrArGrUrGrArAdAdT | 81.4
sense rUrUrCrCrGrArCrUrGrUrUrGrGrArArGrArArCdTdT / antisense rGrUrUrCrUrUrCrCrArArCrArGrUrCrGrGrArAdAdT | 52.3
sense rUrUrGrUrCrCrUrGrCrArArGrArGrCrUrUrCrGdTdT / antisense rCrGrArArGrCrUrCrUrUrGrCrArGrGrArCrArAdCdT | 51.9

molecular target: not listed separately; experiment: reporter assay of Huesken 2005; details: siRNA

Substance | normalised inhibition (eCFP-eYFP dual reporter) [%]
sense rArArArCrGrCrCrUrArCrGrGrGrArGrUrCrArAdTdT / antisense rUrUrGrArCrUrCrCrCrGrUrArGrGrCrGrUrUrUdGdC | 93.6
sense rArArGrArArArCrUrUrGrCrUrCrCrArGrArUrUdTdT / antisense rArArUrCrUrGrGrArGrCrArArGrUrUrUrCrUrUdCdT | 79
sense rArArUrCrUrGrGrCrArGrArCrUrArCrArGrUrUdTdT / antisense rArArCrUrGrUrArGrUrCrUrGrCrCrArGrArUrUdCdC | 81.7
sense rArArUrGrArGrCrUrCrCrUrUrArCrUrUrArArCdTdT / antisense rGrUrUrArArGrUrArArGrGrArGrCrUrCrArUrUdCdC | 70.8
sense rArCrArCrCrArGrArGrCrCrUrGrCrCrCrCrArCdTdT / antisense rGrUrGrGrGrGrCrArGrGrCrUrCrUrGrGrUrGrUdGdA | 72.8
sense rArCrCrCrUrUrUrArCrArGrArArCrArCrCrCrAdTdT / antisense rUrGrGrGrUrGrUrUrCrUrGrUrArArArGrGrGrUdGdG | 86.5
sense rArCrUrCrCrUrUrCrCrUrUrCrUrCrUrGrArArGdTdT / antisense rCrUrUrCrArGrArGrArArGrGrArArGrGrArGrUdCdC | 50.7
sense rArCrUrGrArUrGrUrUrCrCrUrUrGrUrGrGrArCdTdT / antisense rGrUrCrCrArCrArArGrGrArArCrArUrCrArGrUdGdA | 55.2
sense rArCrUrUrArArCrUrUrCrUrGrArGrCrArArUrAdTdT / antisense rUrArUrUrGrCrUrCrArGrArArGrUrUrArArGrUdAdA | 90.7
sense rArGrArArCrArCrCrCrArGrGrArArUrUrCrUrUdTdT / antisense rArArGrArArUrUrCrCrUrGrGrGrUrGrUrUrCrUdGdT | 84.5
sense rArGrArArGrArArArCrUrUrGrCrUrCrCrArGrAdTdT / antisense rUrCrUrGrGrArGrCrArArGrUrUrUrCrUrUrCrUdCdA | 90
sense rArGrArCrUrArCrArGrUrUrUrCrUrUrUrCrCrCdTdT / antisense rGrGrGrArArArGrArArArCrUrGrUrArGrUrCrUdGdC | 55.6
sense rArGrCrGrGrGrArGrArGrArGrCrArArCrArGrGdTdT / antisense rCrCrUrGrUrUrGrCrUrCrUrCrUrCrCrCrGrCrUdGdC | 43.5
sense rArGrGrUrCrArCrCrArGrArGrUrGrGrArArArCdTdT / antisense rGrUrUrUrCrCrArCrUrCrUrGrGrUrGrArCrCrUdTdT | 94.3
sense rArGrUrGrArUrCrCrCrGrGrGrGrCrUrGrArGrAdTdT / antisense rUrCrUrCrArGrCrCrCrCrGrGrGrArUrCrArCrUdGdG | 94.9
sense rArUrUrGrUrUrCrCrUrGrUrGrArArCrUrGrUrGdTdT / antisense rCrArCrArGrUrUrCrArCrArGrGrArArCrArArUdGdA | 76.9

Substance | normalised inhibition (eCFP-eYFP dual reporter) [%]
sense rCrArArUrCrCrGrCrCrCrCrArCrCrCrUrUrUrAdTdT / antisense rUrArArArGrGrGrUrGrGrGrGrCrGrGrArUrUrGdGdG | 80.2
sense rCrArCrCrArGrArGrCrCrUrGrCrCrCrCrArCrCdTdT / antisense rGrGrUrGrGrGrGrCrArGrGrCrUrCrUrGrGrUrGdTdG | 90.4
sense rCrArCrCrArGrArGrUrGrGrArArArCrUrCrArCdTdT / antisense rGrUrGrArGrUrUrUrCrCrArCrUrCrUrGrGrUrGdAdC | 92.8
sense rCrArGrGrGrGrCrArGrCrGrGrGrArGrArGrArGdTdT / antisense rCrUrCrUrCrUrCrCrCrGrCrUrGrCrCrCrCrUrGdAdA | 66.2
sense rCrArGrGrGrUrArUrGrCrArCrArCrCrCrGrUrGdTdT / antisense rCrArCrGrGrGrUrGrUrGrCrArUrArCrCrCrUrGdTdT | 70.6
sense rCrCrArCrArUrGrGrUrGrUrGrGrArArUrCrUrGdTdT / antisense rCrArGrArUrUrCrCrArCrArCrCrArUrGrUrGrGdCdA | 40.2
sense rCrCrArGrArGrUrGrGrArArArCrUrCrArCrArCdTdT / antisense rGrUrGrUrGrArGrUrUrUrCrCrArCrUrCrUrGrGdTdG | 95.3
sense rCrCrArGrGrGrGrArCrArGrGrCrArGrCrArGrGdTdT / antisense rCrCrUrGrCrUrGrCrCrUrGrUrCrCrCrCrUrGrGdGdC | 45.6
sense rCrCrCrGrGrGrGrCrUrGrArGrArArArGrUrUrCdTdT / antisense rGrArArCrUrUrUrCrUrCrArGrCrCrCrCrGrGrGdAdT | 85.4
sense rCrCrUrGrUrCrArGrGrGrGrUrCrGrGrArGrUrGdTdT / antisense rCrArCrUrCrCrGrArCrCrCrCrUrGrArCrArGrGdCdA | 72.5
sense rCrCrUrUrGrGrArArArCrGrArArCrCrArArGrCdTdT / antisense rGrCrUrUrGrGrUrUrCrGrUrUrUrCrCrArArGrGdGdA | 85.8
sense rCrGrGrGrGrCrUrGrArGrArArArGrUrUrCrGrUdTdT / antisense rArCrGrArArCrUrUrUrCrUrCrArGrCrCrCrCrGdGdG | 95.2
sense rCrGrUrUrUrCrArUrUrGrUrUrCrCrUrGrUrGrAdTdT / antisense rUrCrArCrArGrGrArArCrArArUrGrArArArCrGdAdC | 54.2
sense rCrUrCrUrCrUrGrCrCrArCrArUrGrGrUrGrUrGdTdT / antisense rCrArCrArCrCrArUrGrUrGrGrCrArGrArGrArGdAdC | 46.7
sense rCrUrCrUrGrUrCrUrCrUrCrUrGrCrCrArCrArUdTdT / antisense rArUrGrUrGrGrCrArGrArGrArGrArCrArGrArGdCdC | 62.3
